According to ChEMBL document CHEMBL4219265, “Piperlongumine derivative, CG-06, inhibits STAT3 activity by direct binding to STAT3 and regulating the reactive oxygen species in DU145 prostate carcinoma cells” (Bioorg Med Chem Lett, 2018):

Tests used:
[1] = target: T1, Signal transducer and activator of transcription 3 (Homo sapiens, UniProt P40763); test: Binding affinity to STAT3 in human DU145 cell lysates assessed as reduction in pronase-induced STAT3 digestion by measuring ratio of STAT3 protein level to GAPDH protein level at 50 uM incubated for 1 hr followed by 0.1% pronase addition for 10 mins by Western blot analysis (reference value: 0.2)
T1 sequence (P40763 whole entry): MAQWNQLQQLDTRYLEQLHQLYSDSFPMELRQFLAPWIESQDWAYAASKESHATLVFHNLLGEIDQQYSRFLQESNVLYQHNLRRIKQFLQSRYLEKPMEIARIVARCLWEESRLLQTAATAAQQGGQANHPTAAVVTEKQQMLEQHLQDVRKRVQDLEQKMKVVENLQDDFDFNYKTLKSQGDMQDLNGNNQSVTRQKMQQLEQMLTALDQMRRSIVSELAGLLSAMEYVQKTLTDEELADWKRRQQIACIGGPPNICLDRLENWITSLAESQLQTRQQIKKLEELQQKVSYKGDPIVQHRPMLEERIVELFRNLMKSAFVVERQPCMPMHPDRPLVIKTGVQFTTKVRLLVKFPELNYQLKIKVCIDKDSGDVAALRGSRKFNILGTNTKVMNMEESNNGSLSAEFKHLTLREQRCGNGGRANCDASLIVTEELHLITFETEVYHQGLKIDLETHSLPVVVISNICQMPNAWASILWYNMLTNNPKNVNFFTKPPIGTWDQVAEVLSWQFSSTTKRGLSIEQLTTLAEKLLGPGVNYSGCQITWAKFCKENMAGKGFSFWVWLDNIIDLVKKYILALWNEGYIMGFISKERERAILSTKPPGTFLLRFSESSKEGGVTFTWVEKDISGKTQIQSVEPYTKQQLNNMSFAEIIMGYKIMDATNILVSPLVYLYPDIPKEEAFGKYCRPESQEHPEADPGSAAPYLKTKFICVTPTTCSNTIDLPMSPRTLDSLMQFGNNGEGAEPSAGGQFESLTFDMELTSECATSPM

[2] = target: T1, Signal transducer and activator of transcription 3; test: Inhibition of STAT3 in human DU145 cells assessed as ratio of cyclin D1 protein level to tubulin protein level at 5 uM after 48 hrs by Western blot analysis (reference value: 1); type: cell-based
[3] = target: T1, Signal transducer and activator of transcription 3; test: Binding affinity to STAT3 in human DU145 cell lysates assessed as reduction in pronase-induced STAT3 digestion by measuring ratio of STAT3 protein level to GAPDH protein level at 10 uM incubated for 1 hr in absence of pronase by Western blot analysis (reference value: 1)
[4] = system: DU-145; test: Effect on total ERK1/2 protein level in human DU145 cells assessed as ratio of ERK1/2 protein level to GAPDH protein level at 5 uM after 3 hrs by Western blot analysis (reference value: 1); type: ADME, cell-based; details: du-145, 3 h
[5] = system: DU-145; test: Cell cycle arrest in human DU145 cells assessed as accumulation at S phase at 5 uM after 24 hrs by flow cytometry (reference value: 6.6%); type: functional
[6] = target: T1, Signal transducer and activator of transcription 3; test: Binding affinity to STAT3 in human DU145 cell lysates assessed as reduction in pronase-induced STAT3 digestion by measuring ratio of STAT3 protein level to GAPDH protein level incubated for 1 hr in absence of pronase by Western blot analysis
[7] = target: T1, Signal transducer and activator of transcription 3; test: Binding affinity to STAT3 in human DU145 cell lysates assessed as reduction in pronase-induced STAT3 digestion by measuring ratio of STAT3 protein level to GAPDH protein level at 50 uM incubated for 1 hr in absence of pronase by Western blot analysis (reference value: 1)
[8] = system: DU-145; test: Effect on total ERK1/2 protein level in human DU145 cells assessed as ratio of ERK1/2 protein level to GAPDH protein level at 5 uM after 0.5 hrs by Western blot analysis (reference value: 1); type: ADME, cell-based; details: du-145, 0.5 h
[9] = target: T1, Signal transducer and activator of transcription 3; test: Inhibition of STAT3 phosphorylation at Tyr705 residues in human DU145 cells assessed as ratio of phosphorylated STAT3 protein level to GAPDH protein level at 5 uM after 3 hrs by Western blot analysis (reference value: 1); type: cell-based
[10] = target: T1, Signal transducer and activator of transcription 3; test: Inhibition of STAT3 in human DU145 cells assessed as ratio of PARP protein level to tubulin protein level at 5 uM after 48 hrs by Western blot analysis (reference value: 1); type: cell-based
[11] = target: T1, Signal transducer and activator of transcription 3; test: Inhibition of STAT3 phosphorylation at Tyr705 residues in human DU145 cells assessed as ratio of phosphorylated STAT3 protein level to GAPDH protein level at 5 uM after 1 hr by Western blot analysis (reference value: 1); type: cell-based
[12] = target: T1, Signal transducer and activator of transcription 3; test: Inhibition of STAT3 in human DU145 cells assessed as ratio of Bcl-2 protein level to tubulin protein level at 5 uM after 48 hrs by Western blot analysis (reference value: 1); type: cell-based
[13] = system: DU-145; test: Effect on total STAT3 protein level in human DU145 cells assessed as ratio of STAT3 protein level to GAPDH protein level at 0.5 uM after 24 hrs by Western blot analysis (reference value: 1); type: ADME, cell-based; details: du-145, 24 h
[14] = target: T1, Signal transducer and activator of transcription 3; test: Inhibition of STAT3 phosphorylation at Tyr705 residues in human DU145 cells assessed as ratio of phosphorylated STAT3 protein level to GAPDH protein level at 0.1 uM after 24 hrs by Western blot analysis (reference value: 1); type: cell-based
[15] = system: DU-145; test: Cell cycle arrest in human DU145 cells assessed as accumulation at G0/G1 phase at 5 uM after 12 hrs by flow cytometry (reference value: 24.07%); type: functional
[16] = target: T1, Signal transducer and activator of transcription 3; test: Inhibition of STAT3 phosphorylation at Tyr705 residues in human DU145 cells at 5 uM after 24 hrs by Western blot analysis; type: cell-based
[17] = target: T1, Signal transducer and activator of transcription 3; test: Inhibition of STAT3 phosphorylation at Tyr705 residues in human DU145 cells assessed as ratio of phosphorylated STAT3 protein level to GAPDH protein level at 5 uM after 6 hrs by Western blot analysis (reference value: 1); type: cell-based
[18] = system: DU-145; test: Cell cycle arrest in human DU145 cells assessed as accumulation at G2/M phase at 5 uM after 12 hrs by flow cytometry (reference value: 18.12%); type: functional

**Q.** For `C=C(C)C(=O)N(Cc1ccc(Br)cc1)C(=O)/C=C/c1cc(OC)c(OC)c(OC)c1`, which Ratio [1] is on record?
**A.** 0.3

**Q.** What about the Ratio [2] of the same molecule?
**A.** 0.9

**Q.** What about the Ratio [3] of the same molecule?
**A.** 1.1

**Q.** And the Ratio [4]?
**A.** 1.1

**Q.** What about the Activity [5] of the same molecule?
**A.** 8.27%

**Q.** What about the Activity [6] of the same molecule?
**A.** Dose-dependent effect

**Q.** What about the Ratio [7] of the same molecule?
**A.** 1.1

**Q.** And the Ratio [8]?
**A.** 1.1

**Q.** And the Ratio [9]?
**A.** 0.2

**Q.** And the Ratio [10]?
**A.** 0.3 to 0.6

**Q.** What about the Ratio [11] of the same molecule?
**A.** 0.3

**Q.** And the Ratio [12]?
**A.** 0.7

**Q.** And the Ratio [13]?
**A.** 1.1

**Q.** And the Ratio [14]?
**A.** 0.9

**Q.** And the Activity [15]?
**A.** 38.15%

**Q.** And the inhibition [16]?
**A.** > 70%

**Q.** What about the Ratio [17] of the same molecule?
**A.** 0.2

**Q.** And the Activity [18]?
**A.** 21.05%
